The record followed here is US20230114728A1 (Venatorx Pharmaceuticals, Inc., priority 2019, published 2023).

Values after ≈ are worked out from the molar mass of the structure shown. Where two headings read alike, the source gives them in different places.

One experiment has as its system N. gonorrhoeae WHO L. In words: Liquid broth MIC in Fastidious broth. In kind it is cell-based. The following applies: Neisseria gonorrhoeae, read-out: Minimum Inhibitory Concentration, N. gonorrhoeae WHO L. In short, it runs like this: (§1)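 Colonies were swabbed from chocolate agar after 24 h growth and standardised by optical density at 600 nm. Compounds were serially diluted twofold in Fastidious broth, and bacteria added to give 5×10^5 CFU/mL. After about 24 h at 36 °C in 5% CO2, the lowest concentration allowing under 10% growth was taken as MIC.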

The next experiment concerns N. gonorrhoeae FA1090. In words: Liquid broth MIC in Fastidious broth. It is filed as cell-based. The conditions noted are these: Neisseria gonorrhoeae. In short, it runs like this:
as §1

The test system of a further experiment is N. gonorrhoeae H041. In words: Liquid broth MIC in Fastidious broth. In kind it is cell-based. The conditions noted are these: Neisseria gonorrhoeae, H041, read-out: Minimum Inhibitory Concentration, N. gonorrhoeae H041. In short, it runs like this:
(§2)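 Mosaic-PBP2 strains grown 24 h on chocolate agar (36 °C, 5% CO2), then direct-suspended in saline and OD600-adjusted. Twofold compound dilutions in Fastidious broth inoculated at 5×10^5 CFU/mL and incubated ~24 h at 36 °C, 5% CO2. MIC read visually as lowest concentration with <10% growth versus full-growth wells.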

In a further experiment the test system is N. gonorrhoeae WHO K. In words: Liquid broth MIC in Fastidious broth. In kind it is cell-based. The following applies: Neisseria gonorrhoeae, read-out: Minimum Inhibitory Concentration, N. gonorrhoeae WHO K. In short, it runs like this:
as §2

A further experiment has as its system N. gonorrhoeae WHO G. The experiment can be described thus: Liquid broth MIC in Fastidious broth. It is filed as cell-based. The conditions noted are these: Neisseria gonorrhoeae, read-out: Minimum Inhibitory Concentration, N. gonorrhoeae WHO G. The procedure, abridged: as §1
Experiment [1] deals with N. gonorrhoeae ATCC 49226. The experiment can be described thus: Liquid broth MIC in Fastidious broth. In kind it is cell-based. The following applies: Neisseria gonorrhoeae. The procedure, abridged: as §1
A further experiment deals with T1, P. aeruginosa PBP3 (Pseudomonas aeruginosa, UniProt G3XD46).
T1 construct: made in house
In words: Bocillin-FL fluorescence polarization competition binding assay, P. aeruginosa PBP3. The conditions noted are these: fluorescence polarization competition binding assay using Bocillin-FL. In short, it runs like this: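 Inhibitor competition with Bocillin-FL for P. aeruginosa PBP3 was followed by fluorescence polarization on a Cytation3 (BioTek) reader, using g-factor 0.96, 490 nm excitation and 520 nm emission. The enzyme was at 0.75 μM and the probe at 0.1 μM in Hepes/NaCl/glycerol buffer, 80 μl per well. FP was recorded immediately after probe addition for up to 60 minutes. Potency was expressed as EC50, the concentration that reduces bound probe by 50%.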

In another experiment the target is T2, E. coli K12 PBP3 (Escherichia coli, UniProt P0AD68).
T2 construct: made in house
The experiment can be described thus: biochemical. In kind it is binding. The procedure, abridged:
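A. baumannii PBP2 (2.5 μM) and PBP3 (0.2 μM) were run in 25 mM Tris pH 8.0 buffer with Tween 20; E. coli PBP3 (1.5 μM) and N. gonorrhoeae PBP2 ([…]) in 50 mM Hepes pH 8.0 buffer.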

[2] abbreviates: N. gonorrhoeae strain WHO L, Fastidious broth.
The mark [3] stands for this setting: N. gonorrhoeae strain FA1090, Fastidious broth, read-out: Minimum Inhibitory Concentration, N. gonorrhoeae FA1090.
Setting [4] is: N. gonorrhoeae strain WHO G, Fastidious broth.
[5] abbreviates: ATCC49226, N. gonorrhoeae strain ATCC 49226, Fastidious broth, read-out: Minimum Inhibitory Concentration, N. gonorrhoeae ATCC 49226.

T2 sequence (P0AD68 1-577): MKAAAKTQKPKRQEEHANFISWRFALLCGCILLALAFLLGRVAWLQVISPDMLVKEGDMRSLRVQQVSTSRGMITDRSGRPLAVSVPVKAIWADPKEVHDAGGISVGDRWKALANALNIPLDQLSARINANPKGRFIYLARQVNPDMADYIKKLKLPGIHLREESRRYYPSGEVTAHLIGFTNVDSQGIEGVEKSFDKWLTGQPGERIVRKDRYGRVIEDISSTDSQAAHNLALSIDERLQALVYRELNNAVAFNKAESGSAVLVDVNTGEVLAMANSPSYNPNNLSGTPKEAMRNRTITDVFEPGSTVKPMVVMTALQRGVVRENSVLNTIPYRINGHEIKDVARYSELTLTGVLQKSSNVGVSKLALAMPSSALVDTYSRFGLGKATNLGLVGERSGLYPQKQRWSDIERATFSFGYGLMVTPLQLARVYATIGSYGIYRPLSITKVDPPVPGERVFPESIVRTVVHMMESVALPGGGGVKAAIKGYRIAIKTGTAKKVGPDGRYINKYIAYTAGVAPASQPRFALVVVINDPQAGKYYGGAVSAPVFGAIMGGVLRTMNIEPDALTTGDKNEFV
T1 sequence (G3XD46 whole entry): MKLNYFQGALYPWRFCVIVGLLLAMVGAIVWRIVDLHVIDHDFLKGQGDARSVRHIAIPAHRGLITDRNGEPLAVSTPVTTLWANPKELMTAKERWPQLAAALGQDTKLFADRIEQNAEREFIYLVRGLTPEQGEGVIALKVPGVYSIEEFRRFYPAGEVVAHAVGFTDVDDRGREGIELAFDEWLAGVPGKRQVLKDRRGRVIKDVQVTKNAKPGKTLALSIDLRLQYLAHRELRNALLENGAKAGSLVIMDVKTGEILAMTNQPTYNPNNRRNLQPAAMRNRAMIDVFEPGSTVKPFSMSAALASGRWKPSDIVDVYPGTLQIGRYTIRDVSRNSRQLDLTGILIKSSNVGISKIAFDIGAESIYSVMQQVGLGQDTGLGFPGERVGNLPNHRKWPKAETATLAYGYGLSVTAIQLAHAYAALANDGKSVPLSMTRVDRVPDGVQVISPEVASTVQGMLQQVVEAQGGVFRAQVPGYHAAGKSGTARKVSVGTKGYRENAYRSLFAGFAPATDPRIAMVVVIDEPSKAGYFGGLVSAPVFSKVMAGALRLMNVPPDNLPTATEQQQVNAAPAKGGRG

As usually defined, the EC50 is the concentration at which the effect is half-maximal. Low readings indicate higher potency in that assay, high ones lower potency in that assay. Turning to `CCN1CCN(C(=O)NC(C(=O)N[C@H]2Cc3cccc(C(=O)O)c3OB2O)c2ccc(C(=O)O)c(F)c2)C(=O)C1=O` (stereo partly drawn) [Example 31, (3R)-3-(2-(4-carboxy-3-fluorophenyl)-2-(4-ethyl-2,3-dioxopiperazine-1-carboxamido)acetamido)-2-hydroxy-3,4-dihydro-2H-benzo[e][1,2]oxaborinine-8-carboxylic acid], the MIC in the experiment with N. gonorrhoeae WHO L (setting [2]) was 4 to 8 µg/mL (≈ 7.01 to 14 µM); with N. gonorrhoeae FA1090 (setting [3]) it was less than 0.125 µg/mL; in the experiment on N. gonorrhoeae H041 it was 4 to 8 µg/mL (≈ 7.01 to 14 µM); with N. gonorrhoeae WHO K it was 4 to 8 µg/mL (≈ 7.01 to 14 µM); in the experiment on N. gonorrhoeae WHO G (setting [4]), 1 to 2 µg/mL (≈ 1.75 to 3.51 µM); in experiment [1] (setting [5]), 1 to 2 µg/mL (≈ 1.75 to 3.51 µM). The “P. aeruginosa PBP3 Potency” value on P. aeruginosa PBP3 is “D (D represents a potency <10 μM)”. In addition, the EC50 on E. coli K12 PBP3 is less than 30 µM.
Regarding `N[C@@H](C(=O)N[C@H]1Cc2ccc(F)c(C(=O)O)c2OB1O)c1ccc(OS(=O)(=O)F)cc1` [Example 32, (R)-3-((R)-2-amino-2-(4-((fluorosulfonyl)oxy)phenyl)acetamido)-7-fluoro-2-hydroxy-3,4-dihydro-2H-benzo[e][1,2]oxaborinine-8-carboxylic acid], the MIC is more than 64 µg/mL in the experiment on N. gonorrhoeae WHO L; more than 64 µg/mL in the experiment on N. gonorrhoeae FA1090 (FA1090, read-out: Minimum Inhibitory Concentration, N. gonorrhoeae FA1090); more than 64 µg/mL in the experiment on N. gonorrhoeae H041; more than 64 µg/mL with N. gonorrhoeae WHO K; more than 64 µg/mL in the experiment on N. gonorrhoeae WHO G; more than 64 µg/mL in experiment [1] (ATCC49226, read-out: Minimum Inhibitory Concentration, N. gonorrhoeae ATCC 49226). On P. aeruginosa PBP3, the “P. aeruginosa PBP3 Potency” value is “A (A represents a potency of >500 μM)”. The compound further displayed a 50% effective concentration (EC50) on E. coli K12 PBP3 of more than 500 µM.
As to `CCN1CCN(C(=O)NC(C(=O)N[C@H]2Cc3ccc(F)c(C(=O)O)c3OB2O)c2c(F)cc(O)c(O)c2F)C(=O)C1=O` (stereo partly drawn) [Example 36, (3R)-3-(2-(2,6-difluoro-3,4-dihydroxyphenyl)-2-(4-ethyl-2,3-dioxopiperazine-1-carboxamido)acetamido)-7-fluoro-2-hydroxy-3,4-dihydro-2H-benzo[e][1,2]oxaborinine-8-carboxylic acid], the MIC in the experiment on N. gonorrhoeae WHO L (setting [2]) is more than 64 µg/mL; in the experiment on N. gonorrhoeae FA1090 (setting [3]) it was 4 to 8 µg/mL (≈ 6.73 to 13.5 µM); with N. gonorrhoeae H041, 16 to 32 µg/mL (≈ 26.9 to 53.8 µM); in the experiment with N. gonorrhoeae WHO K, 16 to 32 µg/mL (≈ 26.9 to 53.8 µM); in the experiment on N. gonorrhoeae WHO G (setting [4]) it was 16 to 32 µg/mL (≈ 26.9 to 53.8 µM); in experiment [1] (setting [5]), 16 to 32 µg/mL (≈ 26.9 to 53.8 µM). Besides, on P. aeruginosa PBP3, the “P. aeruginosa PBP3 Potency” value was “D (D represents a potency <10 μM)”. The EC50 at E. coli K12 PBP3 is less than 30 µM.
As to `O=C(O)c1c(F)ccc2c1OB(O)[C@@H](NC(=O)C(NC(=O)N1CCN(CCF)C(=O)C1=O)c1c(F)cc(O)c(O)c1F)C2` (stereo partly drawn) [Example 37, (3R)-3-(2-(2,6-difluoro-3,4-dihydroxyphenyl)-2-(4-(2-fluoroethyl)-2,3-dioxopiperazine-1-carboxamido)acetamido)-7-fluoro-2-hydroxy-3,4-dihydro-2H-benzo[e][1,2]oxaborinine-8-carboxylic acid], the MIC was more than 64 µg/mL in the experiment with N. gonorrhoeae WHO L (setting [2]); 4 to 8 µg/mL (≈ 6.53 to 13.1 µM) with N. gonorrhoeae FA1090 (setting [3]); 16 to 32 µg/mL (≈ 26.1 to 52.3 µM) in the experiment with N. gonorrhoeae H041; 16 to 32 µg/mL (≈ 26.1 to 52.3 µM) in the experiment on N. gonorrhoeae WHO K; 16 to 32 µg/mL (≈ 26.1 to 52.3 µM) in the experiment with N. gonorrhoeae WHO G (setting [4]); 16 to 32 µg/mL (≈ 26.1 to 52.3 µM) in experiment [1] (setting [5]). Moreover, the “P. aeruginosa PBP3 Potency” value on P. aeruginosa PBP3 is recorded as “D (D represents a potency <10 μM)”. On E. coli K12 PBP3, this compound displayed a half-maximal effective concentration (EC50) of less than 30 µM.
`NCCCN1CCN(C(=O)NC(C(=O)N[C@H]2Cc3cccc(C(=O)O)c3OB2O)c2ccc(C(=O)O)cc2)C(=O)C1=O` (stereo partly drawn) [Example 39, (3R)-3-(2-(4-(3-aminopropyl)-2,3-dioxopiperazine-1-carboxamido)-2-(4-carboxyphenyl)acetamido)-2-hydroxy-3,4-dihydro-2H-benzo[e][1,2]oxaborinine-8-carboxylic acid]: the MIC in the experiment on N. gonorrhoeae WHO L (setting [2]) is 16 to 32 µg/mL (≈ 27.5 to 55 µM); with N. gonorrhoeae FA1090 (setting [3]) it was 1 to 2 µg/mL (≈ 1.72 to 3.44 µM); with N. gonorrhoeae H041 it was more than 64 µg/mL; in the experiment with N. gonorrhoeae WHO K, more than 64 µg/mL; in the experiment on N. gonorrhoeae WHO G (setting [4]), 4 to 8 µg/mL (≈ 6.88 to 13.8 µM); in experiment [1] (setting [5]) it was 4 to 8 µg/mL (≈ 6.88 to 13.8 µM). The “P. aeruginosa PBP3 Potency” value at P. aeruginosa PBP3 is given as “D (D represents a potency <10 μM)”. Further, the half-maximal effective concentration (EC50) at E. coli K12 PBP3 was less than 30 µM.
